Data: publication PMC12810539, “EGFR-targeted gadolinium contrast agents for enhanced molecular magnetic resonance imaging of tumors” (The Journal of Biological Chemistry, 2025)

What was measured:
[1] = test system: MDA-MB-231 and U138 MG tumor xenografts; test: In vivo MR imaging of tumor xenografts; design: species or system SCID mice; settings: i.v. 50 μM Gd/kg, 7 T T1-weighted MRI, n = 6; conjugates in MDA-MB-231 xenografts; imaged up to 4 h
Description: The 6- to 8-week-old male non-obese diabetic (NOD)/severe-combined immunodeficient (SCID) mice were used to establish MDA-MB-231 (EGFR-overexpressing) and U138 MG (non-EGFR-overexpressing) xenograft models ([35]). The mice were obtained from the Experimental Animal Center of Tongji Medical College, Huazhong University of Science and Technology, and all the experimental procedures involving animals were further approved by the Animal Care and Use Committee of Huazhong University of Science and Technology. The mice were housed separately in polycarbonate cages and provided with food and water. Tumors were grown under the skin by s.c. injection of 1 × 10^6-3 × 10^6 cells. The mice were randomized into groups for the biodistribution assay and MR imaging in vivo when the xenografts reached 5 to 7 mm in diameter. […]
Tumor-bearing SCID mice were randomly grouped and scanned with a Bruker Biospec 7 T MRI scanner (Bruker Corp.) with a volume radio frequency (RF) coil. […] The parameters of the 2D T1-weighted gradient echo sequence were TR/TE = 151.2/1.9 ms, FOV = 3.0 cm, slice thickness = 1.2 mm, slice number = 20, average = 1, flip angle = 80°, and matrix = 128 × 128 ([28], [37]).The CNR were calculated with standard methods (CNR = [Stumor-Sbackground]/SDnoise).

U138 MG tumor xenografts = test: In vivo biodistribution: tumor Gd content (ICP-MS); settings: SCID mice, mean ± SD
Description: The 6- to 8-week-old male non-obese diabetic (NOD)/severe-combined immunodeficient (SCID) mice were used to establish MDA-MB-231 (EGFR-overexpressing) and U138 MG (non-EGFR-overexpressing) xenograft models ([35]). The mice were obtained from the Experimental Animal Center of Tongji Medical College, Huazhong University of Science and Technology, and all the experimental procedures involving animals were further approved by the Animal Care and Use Committee of Huazhong University of Science and Technology. The mice were housed separately in polycarbonate cages and provided with food and water. Tumors were grown under the skin by s.c. injection of 1 × 10^6-3 × 10^6 cells. The mice were randomized into groups for the biodistribution assay and MR imaging in vivo when the xenografts reached 5 to 7 mm in diameter. All procedures were approved by the Institutional Animal Care and Use Committee of Huazhong University of Science and Technology (approval no.270193).
The tumor-bearing SCID mice were randomly divided into groups, with 6 animals in each group, an injected via the tail vein with 50 μM Gd/kg EBP-Gd-DO3A, EBP-(Gd-DO3A)3, or Gadovist. At the selected time points (0.25, 0.5, 1, 2, 4, 8, 24, and 48 h) after injection, blood was collected and centrifuged to separate the plasma. Then, organ and tissue samples, including the kidneys, liver, heart, and tumor, were collected and weighed. The tissue samples were liquefied for 1 week and then transferred into centrifuge tubes and centrifuged at 14,000 rpm for 5 min. The resulting supernatants were diluted tenfold with deionized water and centrifuged again under the same conditions. The Gd concentration in the samples was measured by ICP-MS ([36]).

[2] = test system: MDA-MB-231, A549, SGC-7901, SW480 and U138 MG cells; test: In vitro MR imaging of labelled tumor cells, with and without C225; assay type: cell-based, human; settings: for MRI signal of cells pretreated with versus without C225: C225 preincubation 12 h, then 50 μM Gd for 24 h, all tested cell lines; for MR enhancement effect in MDA-MB-231, A549, SGC-7901 and SW480 tumor cells / MR enhancement effect in U138MG cell line: 37 °C, 11.7 T MR microimaging of cell pellets
Description: For the in vitro MRI assay, MDA-MB-231, A549, SGC-7901, SW480, and U138 MG cells were seeded into 100 mm × 20 mm cell culture dishes at a density of approximately 1 × 10^6 cells per dish and incubated with EBP-Gd-DO3A, EBP-(Gd-DO3A)3 or Gadovist at a Gd concentration of 50 μM for 24 h at 37 °C. After the completion of the labelling, the cells were washed with PBS 3 times and collected into 1.5 mm-i.d. capillary tubes that were centrifuged at 1400 rpm for 5 min to enable cells to be well packed in the bottom of the capillary for the MRI. The in vitro MRI experiments were performed on an 11.7 T Bruker NMR spectrometer that functioned as an MR microimaging system with a maximum gradient strength of 1.0 T/m. A linear 15-mm-i.d birdcage coil was used for radiofrequency transmission and signal reception. The parameters used for acquiring images were TR = 500 ms, TE = 5.2 ms, FOV = 12 × 12 mm^2, matrix = 96 × 96, flip angle = 90°, slice thickness/gap = 0.8/0.2 mm and number of averages = 4.
The C225-preincubated cells described above were imaged with MRI to observe the contrast enhancement effects. The method used for the MR imaging of cell pellets was the same as that for the in vitro MR imaging of the conjugates described above.

| Compound | time that tumor contrast enhancement persisted after injection [1] [h] | Gd content in the U138 MG tumors (U138 MG tumor xenografts; 0.5 h after single i.v. 50 μM Gd/kg) [nM/g tissue] | Gd content in the U138 MG tumors (U138 MG tumor xenografts; 2 h after single i.v. 50 μM Gd/kg) [nM/g tissue] | Gd content in the U138 MG tumors (U138 MG tumor xenografts; 24 h after single i.v. 50 μM Gd/kg) [nM/g tissue] | T1 signal intensity in cells with different levels of EGFR expression ([2]; 50 μM Gd, 24 h, ROI analysis, p > 0.05) | MRI signal of cells pretreated with versus without C225 [2] | MR enhancement effect in MDA-MB-231, A549, SGC-7901 and SW480 tumor cells ([2]; 50 μM Gd, 24 h) | MR enhancement effect in U138MG cell line ([2]; 50 μM Gd, 24 h) |
| --- | --- | --- | --- | --- | --- | --- | --- | --- |
| O=C([O-])CN1CCN(CC(=O)[O-])CCN([C@H](CO)[C@H](O)CO)CCN(CC(=O)[O-])CC1.[Gd+3] (racemic) [Gadovist, reference compound] | 2 | 8.70 ± 1.24 | 5.76 ± 0.45 | 0.90 ± 0.23 | not significantly different | no significant difference | – | – |
| CMYIEALDKYAC [EBP-(Gd-DO3A)3] | – | – | – | – | – | reduced | strong enhancement effects | much weaker enhancement effect |
| CMYIEALDKYAC [EBP-Gd-DO3A] | – | – | – | – | – | reduced | strong enhancement effects | much weaker enhancement effect |
